Test results from patent publication US20070074295A1 (priority 2000, published 2007).

Legend:
freely moving rats = test: Induction and maintenance of PCP-induced hypofunction: LCGU by 14C-2-deoxyglucose autoradiography; type: in vivo, rat
Procedure: An initial treatment period of intraperitoneal (i.p.) injections once daily for 5 days was carried out, followed by a maintenance schedule of i.p. injections three times weekly (every 60 hours) for a further 21 days.
Intermittent exposure to PCP during the maintenance phase of the model was favoured due to the long half life of the drug within brain tissue (Misra, A. L. et al). […] As a comparison to the present model, the inventors also investigated the effect of previously published subchronic treatment with PCP (Jentsch, J. D. et al) using quantitative C-2-deoxyglucose autoradiography (Sokoloff, L.)
Local cerebral glucose utilisation (LCGU) was measured using an adaptation of the original method for freely moving rats (Crane, A. M. et al) 72 hours after the initial induction phase (day 8) and 72 hours after the induction phase followed by the maintenance phase (day 29). LCGU was measured 72 hours after the last exposure to PCP so the effects of PCP on LCGU would be independent of the acute effects of the drug. […] Thus, using a dose of 2.59 mgkg^−1 the inventors had established a novel treatment paradigm which mimics the findings of human imaging studies in schizophrenic patients.

CIRL2 variant AB mRNA = test: Semi-quantitative RT-PCR, prefrontal cortex, chronic PCP and antipsychotic treatment; type: in vivo, rat; settings: chronic PCP treatment
Procedure: FIG. 15 illustrates the level of CIRL2 variant AB mRNA present in the prefrontal cortex of rat brain following chronic PCP and antipsychotic treatment (n=12 for all groups apart from veh-veh where n=11). […] and […] (SEQ ID NOS: 27-28) were the primer sequences used to amplify this product.
RT-PCR for specific isoforms of CIRL was then conducted in the prefrontal cortex.
1 ml of lysis buffer (Qiagen), including 1% β-mercaptoethanol, was added to approximately 50-100 mg of brain tissue. Tissue samples were homogenised using a ribolyser (Hybaid) with 3 bursts at 6.5 g lasting 20 seconds each. Samples were then spun at room temperature in a microfuge for 3 minutes. The supernatant was removed and re-spun for a further 3 minutes. The supernatant was decanted to a fresh tube to which an equal volume of 70% ethanol was added. The remaining RNA isolation procedure was carried out according to the manufacturer's protocol (Qiagen).
Synthesis of cDNA was carried out according to manufacturers protocols (Life Technologies). Briefly 3-5μg of total RNA was reverse transcribed using oligo dT priming. After cDNA synthesis, samples were aliquoted and stored at −70° C. […]
Alterations in expression levels were determined by semi-quantitative PCR. […] Samples were removed over 4 consecutive cycles, however, the first cycle to be removed sometimes varied depending on when logarithmic amplification was detected. […]

c1ccc(C2(N3CCCCC3)CCCCC2)cc1 [PCP, phencyclidine]
maintenance of metabolic hypofunction by second phase of the model (freely moving rats; 0.86 mgkg^−1 PCP): not, however, maintained | LCGU, Au layer I (freely moving rats; 0.86 mgkg^−1 PCP i.p., day 8): 127 ± 2 μmol/100 g/min | LCGU, Au layers II, III&IV (freely moving rats; 0.86 mgkg^−1 PCP i.p., day 8): 152 ± 3 μmol/100 g/min | LCGU, Au layers V & VI (freely moving rats; 0.86 mgkg^−1 PCP i.p., day 8): 114 ± 4 μmol/100 g/min | LCGU, AuD layer I (freely moving rats; 0.86 mgkg^−1 PCP i.p., day 8): 126 ± 3 μmol/100 g/min | LCGU, AuD layers II, III&IV (freely moving rats; 0.86 mgkg^−1 PCP i.p., day 8): 151 ± 4 μmol/100 g/min | LCGU, AuD layers V & VI (freely moving rats; 0.86 mgkg^−1 PCP i.p., day 8): 106 ± 2 μmol/100 g/min | LCGU, DLL (freely moving rats; 0.86 mgkg^−1 PCP i.p., day 8): 91 ± 4 μmol/100 g/min | LCGU, MD (freely moving rats; 0.86 mgkg^−1 PCP i.p., day 8): 112 ± 4 μmol/100 g/min | LCGU, PrL layer I (freely moving rats; 0.86 mgkg^−1 PCP i.p., day 8): 132 ± 6 μmol/100 g/min | LCGU, PrL layers II & III (freely moving rats; 0.86 mgkg^−1 PCP i.p., day 8): 150 ± 7 μmol/100 g/min | LCGU, PrL layers V & VI (freely moving rats; 0.86 mgkg^−1 PCP i.p., day 8): 115 ± 3 μmol/100 g/min | LCGU, Rt (freely moving rats; 0.86 mgkg^−1 PCP i.p., day 8): 106 ± 2 μmol/100 g/min | LCGU, VLL (freely moving rats; 0.86 mgkg^−1 PCP i.p., day 8): 98 ± 5 μmol/100 g/min | LCGU, cochlear nucleus (freely moving rats; 0.86 mgkg^−1 PCP i.p., day 8): 107 ± 3 μmol/100 g/min | LCGU, mO layer (freely moving rats; 0.86 mgkg^−1 PCP i.p., day 8): 110 ± 2 μmol/100 g/min | LCGU, mO layers II & III (freely moving rats; 0.86 mgkg^−1 PCP i.p., day 8): 127 ± 2 μmol/100 g/min | LCGU, mO layers V & VI (freely moving rats; 0.86 mgkg^−1 PCP i.p., day 8): 129 ± 5 μmol/100 g/min | LCGU, Au layer I (freely moving rats; 0.86 mgkg^−1 PCP i.p., day 29): 167 ± 14 μmol/100 g/min | LCGU, Au layers II, III&IV (freely moving rats; 0.86 mgkg^−1 PCP i.p., day 29): 189 ± 12 μmol/100 g/min | LCGU, Au layers V & VI (freely moving rats; 0.86 mgkg^−1 PCP i.p., day 29): 137 ± 10 μmol/100 g/min | LCGU, AuD layer I (freely moving rats; 0.86 mgkg^−1 PCP i.p., day 29): 159 ± 11 μmol/100 g/min | LCGU, AuD layers II, III&IV (freely moving rats; 0.86 mgkg^−1 PCP i.p., day 29): 178 ± 10 μmol/100 g/min | LCGU, AuD layers V & VI (freely moving rats; 0.86 mgkg^−1 PCP i.p., day 29): 128 ± 9 μmol/100 g/min | LCGU, DLL (freely moving rats; 0.86 mgkg^−1 PCP i.p., day 29): 116 ± 8 μmol/100 g/min | LCGU, MD (freely moving rats; 0.86 mgkg^−1 PCP i.p., day 29): 122 ± 5 μmol/100 g/min | LCGU, PrL layer I (freely moving rats; 0.86 mgkg^−1 PCP i.p., day 29): 133 ± 2 μmol/100 g/min | LCGU, PrL layers II & III (freely moving rats; 0.86 mgkg^−1 PCP i.p., day 29): 149 ± 2 μmol/100 g/min | LCGU, PrL layers V & VI (freely moving rats; 0.86 mgkg^−1 PCP i.p., day 29): 112 ± 3 μmol/100 g/min | LCGU, Rt (freely moving rats; 0.86 mgkg^−1 PCP i.p., day 29): 108 ± 4 μmol/100 g/min | LCGU, VLL (freely moving rats; 0.86 mgkg^−1 PCP i.p., day 29): 118 ± 13 μmol/100 g/min | LCGU, cochlear nucleus (freely moving rats; 0.86 mgkg^−1 PCP i.p., day 29): 117 ± 2 μmol/100 g/min | LCGU, mO layer (freely moving rats; 0.86 mgkg^−1 PCP i.p., day 29): 122 ± 3 μmol/100 g/min | LCGU, mO layers II & III (freely moving rats; 0.86 mgkg^−1 PCP i.p., day 29): 135 ± 4 μmol/100 g/min | LCGU, mO layers V & VI (freely moving rats; 0.86 mgkg^−1 PCP i.p., day 29): 136 ± 3 μmol/100 g/min | LCGU, Au layer I (freely moving rats; 2.58 mgkg^−1 PCP i.p., day 8): 135 ± 3 μmol/100 g/min | LCGU, Au layers II, III&IV (freely moving rats; 2.58 mgkg^−1 PCP i.p., day 8): 166 ± 5 μmol/100 g/min | LCGU, Au layers V & VI (freely moving rats; 2.58 mgkg^−1 PCP i.p., day 8): 120 ± 4 μmol/100 g/min | LCGU, AuD layer I (freely moving rats; 2.58 mgkg^−1 PCP i.p., day 8): 135 ± 3 μmol/100 g/min | LCGU, AuD layers II, III&IV (freely moving rats; 2.58 mgkg^−1 PCP i.p., day 8): 151 ± 4 μmol/100 g/min | LCGU, AuD layers V & VI (freely moving rats; 2.58 mgkg^−1 PCP i.p., day 8): 104 ± 2 μmol/100 g/min | LCGU, DLL (freely moving rats; 2.58 mgkg^−1 PCP i.p., day 8): 83 ± 4 μmol/100 g/min | LCGU, MD (freely moving rats; 2.58 mgkg^−1 PCP i.p., day 8): 115 ± 4 μmol/100 g/min | LCGU, PrL layer I (freely moving rats; 2.58 mgkg^−1 PCP i.p., day 8): 104 ± 2 μmol/100 g/min | LCGU, PrL layers II & III (freely moving rats; 2.58 mgkg^−1 PCP i.p., day 8): 133 ± 2 μmol/100 g/min | LCGU, PrL layers V & VI (freely moving rats; 2.58 mgkg^−1 PCP i.p., day 8): 96 ± 3 μmol/100 g/min | LCGU, Rt (freely moving rats; 2.58 mgkg^−1 PCP i.p., day 8): 86 ± 2 μmol/100 g/min | LCGU, VLL (freely moving rats; 2.58 mgkg^−1 PCP i.p., day 8): 93 ± 3 μmol/100 g/min | LCGU, cochlear nucleus (freely moving rats; 2.58 mgkg^−1 PCP i.p., day 8): 98 ± 3 μmol/100 g/min | LCGU, mO layer (freely moving rats; 2.58 mgkg^−1 PCP i.p., day 8): 105 ± 4 μmol/100 g/min | LCGU, mO layers II & III (freely moving rats; 2.58 mgkg^−1 PCP i.p., day 8): 127 ± 5 μmol/100 g/min | LCGU, mO layers V & VI (freely moving rats; 2.58 mgkg^−1 PCP i.p., day 8): 115 ± 1 μmol/100 g/min | LCGU, Au layer I (freely moving rats; 2.58 mgkg^−1 PCP i.p., day 29): 137 ± 5 μmol/100 g/min | LCGU, Au layers II, III&IV (freely moving rats; 2.58 mgkg^−1 PCP i.p., day 29): 162 ± 6 μmol/100 g/min | LCGU, Au layers V & VI (freely moving rats; 2.58 mgkg^−1 PCP i.p., day 29): 115 ± 3 μmol/100 g/min | LCGU, AuD layer I (freely moving rats; 2.58 mgkg^−1 PCP i.p., day 29): 130 ± 7 μmol/100 g/min | LCGU, AuD layers II, III&IV (freely moving rats; 2.58 mgkg^−1 PCP i.p., day 29): 146 ± 7 μmol/100 g/min | LCGU, AuD layers V & VI (freely moving rats; 2.58 mgkg^−1 PCP i.p., day 29): 101 ± 4 μmol/100 g/min | LCGU, DLL (freely moving rats; 2.58 mgkg^−1 PCP i.p., day 29): 96 ± 5 μmol/100 g/min | LCGU, MD (freely moving rats; 2.58 mgkg^−1 PCP i.p., day 29): 116 ± 3 μmol/100 g/min | LCGU, PrL layer I (freely moving rats; 2.58 mgkg^−1 PCP i.p., day 29): 107 ± 4 μmol/100 g/min | LCGU, PrL layers II & III (freely moving rats; 2.58 mgkg^−1 PCP i.p., day 29): 116 ± 1 μmol/100 g/min | LCGU, PrL layers V & VI (freely moving rats; 2.58 mgkg^−1 PCP i.p., day 29): 89 ± 2 μmol/100 g/min | LCGU, Rt (freely moving rats; 2.58 mgkg^−1 PCP i.p., day 29): 89 ± 2 μmol/100 g/min | LCGU, VLL (freely moving rats; 2.58 mgkg^−1 PCP i.p., day 29): 99 ± 4 μmol/100 g/min | LCGU, cochlear nucleus (freely moving rats; 2.58 mgkg^−1 PCP i.p., day 29): 94 ± 4 μmol/100 g/min | LCGU, mO layer (freely moving rats; 2.58 mgkg^−1 PCP i.p., day 29): 108 ± 5 μmol/100 g/min | LCGU, mO layers II & III (freely moving rats; 2.58 mgkg^−1 PCP i.p., day 29): 124 ± 5 μmol/100 g/min | LCGU, mO layers V & VI (freely moving rats; 2.58 mgkg^−1 PCP i.p., day 29): 111 ± 3 μmol/100 g/min | LCGU in medial orbital cortex, prelimbic cortex, auditory pathway, reticular nucleus of the thalamus (freely moving rats; 2.58 mgkg^−1 PCP, after both phases of the model): induced a metabolic hypofunction | effect on LCGU within any brain area (freely moving rats; subchronic PCP 5 mgkg^−1 twice daily for seven days (data not shown)): did not produce any significant effect | expression of CIRL2 (AB) (RT-PCR) (CIRL2 variant AB mRNA): reduced
